Assay results taken from article PMC8359193, “Summary of reference chemicals evaluated by the fish short‐term reproduction assay, OECD TG229, using Japanese Medaka, Oryzias latipes” (Journal of Applied Toxicology, 2021).
“Also recorded” adds a separate entry of the source. Read-outs that look alike come from different tables or passages of the source.

What was measured:
medaka Esr1 (mEsr1) = molecular target: T1, medaka Esr1 (mEsr1) (Oryzias latipes, UniProt P50241); assay: cell-based; format: cell-based, Japanese medaka (Oryzias latipes)
T1 construct: expressed in transfected cells; host or cells: HEK293 (human embryonic kidney cells), transient transfection with FuGENE HD
T1 sequence (P50241 1-620): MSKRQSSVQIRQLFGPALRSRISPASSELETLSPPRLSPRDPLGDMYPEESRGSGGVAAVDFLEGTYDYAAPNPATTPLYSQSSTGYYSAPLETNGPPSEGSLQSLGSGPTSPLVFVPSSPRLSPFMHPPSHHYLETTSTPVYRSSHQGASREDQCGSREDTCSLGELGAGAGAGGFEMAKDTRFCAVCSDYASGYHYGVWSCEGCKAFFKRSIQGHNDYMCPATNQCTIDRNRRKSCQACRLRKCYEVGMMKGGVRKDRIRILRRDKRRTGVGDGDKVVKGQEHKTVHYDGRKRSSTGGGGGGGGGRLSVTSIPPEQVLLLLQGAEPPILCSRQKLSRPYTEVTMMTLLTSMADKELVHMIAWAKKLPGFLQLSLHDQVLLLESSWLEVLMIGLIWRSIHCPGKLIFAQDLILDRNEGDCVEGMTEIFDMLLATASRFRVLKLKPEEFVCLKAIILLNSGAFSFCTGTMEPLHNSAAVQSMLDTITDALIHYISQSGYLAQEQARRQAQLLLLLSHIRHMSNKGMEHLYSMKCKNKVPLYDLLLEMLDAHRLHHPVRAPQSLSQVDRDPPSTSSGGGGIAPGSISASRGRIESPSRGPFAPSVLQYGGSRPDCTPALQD
Procedure: (§1) To support interpretation of the biological effects observed in the FSTRA studies, in vitro RGAs using medaka Esr1 (mEsr1) and medaka ARβ (mARβ) were performed for the 16 test chemicals. In the present study, Esr1 and ARβ, which are ancestral subtypes among Esrs and ARs in Japanese medaka, were selected based on the phylogenetical analyses of Esr and AR with each receptor RGAs (Ogino et al., [2016], [2018]; Tohyama et al., [2015]).
The mEsr1 RGA consisting of agonist and antagonist assays were performed according to the methods previously reported (Katsu et al., [2010]; Lange et al., [2012]; Miyagawa et al., [2014]). Briefly, human embryonic kidney cells 293 (HEK293), precultured, were seeded in 96‐well plates at 15,000 cells/well with 200 μl of culture medium, phenol‐red‐free Dulbecco's Modified Eagle's medium (ThermoFisher Scientific K.K., Tokyo, Japan) supplemented with 2‐mM L‐glutamine and 10% charcoal/dextran‐treated fetal bovine serum (Hyclone, UT, USA), and then incubated for 24 h in 5% CO2 at 37°C. After the 24‐h incubation, 20 μl of test medium containing 40 ng of medaka Esr1/pcDNA3.1, 80 ng of ERE‐TK‐Luc, and 20 ng of pRL‐TK‐Rlu and 1.2 μL of transfection reagent FuGENE HD (Promega, WI, USA) were added into each well. The assay plates were incubated for another 4 h in order to transfect the three vectors into the HEK293 cells. After the vectors were successfully transfected, in agonist assay, 24 μl of concentrated test chemical solution was applied to the test medium in the plate wells. […] After chemical treatment for 40 h, luciferase activity of the cells was measured, and the promoter activity was calculated as firefly (Photinus pyralis)‐/sea pansy (Renilla reniformis)‐luciferase activity in each well. The luciferase activities were quantified by a chemiluminescence assay with Dual‐Luciferase Reporter Assay System (Promega) in accordance with the manufacturer's instructions, and luminescence intensity of firefly and sea pansy luciferin was measured using a luminometer, TriStar LB941 (Berthold Technology, Oak Ridge, TN, USA).
(§2) Effect concentrations, that is, EC50 (a half maximal effective concentration) in the agonist assay and IC50 (a half maximal inhibitory concentration) in the antagonist assay, were estimated by nonlinear curve fitting (e.g., three parameters logistic regression curve) using GraphPad Prism (GraphPad Software Inc., La Jolla, CA, USA).

Japanese medaka [1] = settings: cited from earlier work
medaka ARβ (mARβ) [2] = molecular target: T2, medaka ARβ (mARβ) (Oryzias latipes, UniProt D1MV73); assay: Medaka ARβ reporter gene assay (RGA), agonist assay, HepG2 cells; format: cell-based, Japanese medaka (Oryzias latipes); settings: for EC50: mARβ RGA agonist assay, ND = no significant response even at the highest assay concentration (in parentheses)
Procedure: To support interpretation of the biological effects observed in the FSTRA studies, in vitro RGAs using medaka Esr1 (mEsr1) and medaka ARβ (mARβ) were performed for the 16 test chemicals.
For the assays, human liver cancer cell line, HepG2, was used as the host cells, and mARβ/pcDNA3.1, MMTV‐Luc, and pRL‐TK‐Rlu were used as mARβ expression vector, reporter vector, and internal control vector, respectively.
as §2

[3] = P4 concentration in test solutions with and without UV irradiation (biodegradation check); format: physicochemical
medaka ARβ (mARβ) [4] = molecular target: T2, medaka ARβ (mARβ); assay: Medaka ARβ reporter gene assay (RGA), antagonist assay with 50 nM 11KT, HepG2 cells; format: cell-based, Japanese medaka (Oryzias latipes); settings: mARβ RGA antagonist assay, 50 nM 11KT-induced activity; ND = no significant response even at the highest assay concentration (in parentheses)
Procedure: as §1
The mARβ RGA in which the agonist and the antagonist assays were performed as same as the mEsr1 RGA was carried out according to the methods previously reported by Lange et al. ([2015]). For the assays, human liver cancer cell line, HepG2, was used as the host cells, and mARβ/pcDNA3.1, MMTV‐Luc, and pRL‐TK‐Rlu were used as mARβ expression vector, reporter vector, and internal control vector, respectively. Other materials and methods, for example, operating procedure, reagents, and incubation conditions, were almost the same as the mEsr1 RGA previously described beside that 11KT (Sigma‐Aldrich, purity 99.0%), a main AR ligand in fish, was competitively spiked at 50 nM into the test medium with test chemicals in antagonist assay. In the agonist and the antagonist assays, 11KT and 2‐hydroxyflutamide (2HFLT; Sigma‐Aldrich, purity 98.5%) were used as positive controls, respectively.
as §2

Japanese medaka [5] = settings: cited from earlier work; remark: listed apart in the source
[6] = mEsr1 RGA agonist assay, ND = no significant response even at the highest assay concentration (in parentheses), read-out: Agonist assay, EC50, Medaka Esr1
[7] = F0 generation, FLCT, ref Seki et al. (2003)

T2 sequence (D1MV73 entry or part of it): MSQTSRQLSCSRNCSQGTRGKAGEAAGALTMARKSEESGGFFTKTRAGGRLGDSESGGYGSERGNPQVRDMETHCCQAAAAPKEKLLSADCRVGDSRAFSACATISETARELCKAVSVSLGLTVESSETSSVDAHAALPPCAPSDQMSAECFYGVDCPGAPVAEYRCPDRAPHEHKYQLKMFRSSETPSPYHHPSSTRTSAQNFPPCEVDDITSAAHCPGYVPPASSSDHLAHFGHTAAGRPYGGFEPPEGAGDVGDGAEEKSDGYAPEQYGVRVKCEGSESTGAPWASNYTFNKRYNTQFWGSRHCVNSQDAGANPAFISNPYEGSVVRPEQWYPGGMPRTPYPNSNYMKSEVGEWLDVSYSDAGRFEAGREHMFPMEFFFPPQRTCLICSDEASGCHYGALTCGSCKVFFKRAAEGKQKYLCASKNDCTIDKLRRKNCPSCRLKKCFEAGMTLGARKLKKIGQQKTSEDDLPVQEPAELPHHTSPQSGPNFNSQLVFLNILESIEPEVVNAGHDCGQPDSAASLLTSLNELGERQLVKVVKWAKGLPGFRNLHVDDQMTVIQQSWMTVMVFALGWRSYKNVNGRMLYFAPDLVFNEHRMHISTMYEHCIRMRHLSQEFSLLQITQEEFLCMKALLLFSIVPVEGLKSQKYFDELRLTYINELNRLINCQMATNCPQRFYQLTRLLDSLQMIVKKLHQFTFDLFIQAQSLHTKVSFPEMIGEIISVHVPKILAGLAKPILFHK

## Cc1cc(O)ccc1Cl [CMP, 4‐Chloro‐3‐methylphenol]
Medaka Esr1 (mEsr1); read-out: Agonist assay, EC50, Medaka Esr1, mEsr1 RGA agonist assay, ND = no significant response even at the highest assay concentration (in parentheses)
  EC50: 61000 nM

## CCC(C)(C)c1ccc(O)cc1 [PTH, 4‐tert‐Pentylphenol]
Medaka Esr1 (mEsr1); [6]
  EC50: 970 nM
Japanese medaka [1]; [7]
  LOEC on VTG induction: ≤ 51.1 µg/L
  LOEC on reproductive impairment: 224 µg/L

## CC(=O)[C@H]1CC[C@H]2[C@@H]3CCC4=CC(=O)CC[C@]4(C)[C@H]3CC[C@]12C [P4, Progesterone]
Medaka ARβ (mARβ) [2]
  mARβ agonist activity (in words): potent AR agonists
Medaka Esr1 (mEsr1)
  EC50: > 10000 nM
[3]; test solution after 24-h UV treatment
  P4 concentration, % of the nominal: more than 80 % of the nominal
[3]; test solution without UV treatment
  P4 concentration, % of the nominal: less than 20 % of the nominal

## CCCCCCCCCCCCOS(=O)(=O)[O-].[Na+] [SDS, Sodium dodecyl sulfate]
Medaka ARβ (mARβ) [2]
  mARβ agonist activity (in words): no significant increase in hold activation; also recorded: neithEsr agonistic nor antagonistic activity
  EC50: > 100000 nM
Medaka ARβ (mARβ) [4]
  IC50: > 100000 nM
Medaka Esr1 (mEsr1); highest concentration 100 μM
  mEsr1 agonist activity (in words): could not be determined; also recorded: neithEsr agonistic nor antagonistic activity
Medaka Esr1 (mEsr1); [6]
  EC50: > 100000 nM

## C#C[C@]1(O)CC[C@H]2[C@@H]3CCC4=CC(=O)CC[C@@H]4[C@H]3CC[C@@]21CC [LNG, Levonorgestrel]
Medaka ARβ (mARβ) [2]
  mARβ agonist activity (in words): potent AR agonists
Medaka Esr1 (mEsr1); [6]
  EC50: 1100 nM

## C[C@]12C=CC3=C4CCC(=O)C=C4CC[C@H]3[C@@H]1CC[C@@H]2O [TRB, 17β‐Trenbolone]
Japanese medaka [5]; in vivo
  concentration causing reduction of reproduction: 13 pg/mL
Japanese medaka [5]; long-term testing, ref Flynn et al., 2017
  concentration causing induction of SSC in females: 32 ng/L

## C[C@]12CCC(=O)C=C1CC[C@@H]1[C@@H]2CC[C@@]2(C)[C@H]1CC[C@]2(C)O [MT, 17α‐methyltestosterone]
Medaka ARβ (mARβ) [2]
  EC50: 0.12 nM
Japanese medaka [1]; long-term testing, ref Seki et al., 2004
  concentration causing induction of SSC in females and reduction of reproduction: 9.98 pg/mL

## C#C[C@]1(O)CC[C@H]2[C@@H]3CCc4cc(O)ccc4[C@H]3CC[C@@]21C [EE2, 17α‐Ethynylestradiol]
Medaka ARβ (mARβ) [4]
  IC50: 140 nM
Medaka Esr1 (mEsr1); [6]
  EC50: 0.88 nM
Japanese medaka [1]; F0 generation, FLCT, ref MOE, 2006
  concentration that significantly elevated male VTG and reduced fertility: 9.26 pg/mL
